# Assay results reported in patent US20120122956A1, “METHODS FOR INHIBITING AN[…] MULTI-ARM POLYMERIC CONJUGATES OF 7-ETHYL-10-HYDROXYCAMPTOTHECIN” (ENZON PHARMACEUTICALS, INC., priority 2009, published 2012).
# Key:
# [1] = Solubility in aqueous saline solution; assay type: physicochemical
# [2] = Pharmacokinetics in tumor free Balb/C mice; assay type: in vivo
# Protocol: Tumor free Balb/C mice were injected with a single injection of 20 mg/kg 4armPEG-Gly-(7-ethyl-10-hydroxycamptothecin) conjugates. At various time points mice were sacrificed and plasma was analyzed for intact conjugates and released 7-ethyl-10-hydroxycamptothecin by HPLC. Pharmacokinetic analysis was done using non-compartmental analysis (WinNonlin).
# Pharmacokinetics in rats = assay type: in vivo
# Protocol: Additionally, pharmacokinetic profiles of 4arm PEG-Gly-(7-ethyl-10-hydroxycamptothecin) were investigated in rats. In rats, dose levels of 3, 10 and 30 mg/kg (7-ethyl-10-hydroxycamptothecin equivalent) were used. The pharmacokinetic profiles in rats were consistent with those of mice.
# [3] = tested on: CAMs grafted with tumor biopsy specimens of HTLA-230 or GI-LI-N xenografts; conditions: for number of allantoic vessels radiating towards the tumor specimen: compared to control CAMs, CPT-11 10 or 40 mg/kg, compound 9 10 mg/kg (SN38 based)
# Protocol: Protoc. 2006, 1:85-91. Mice were injected with the human NB cell line, HTLA-230 or GI-LI-N. Tumor biopsy specimens in size of 1-2 mm^3 were obtained from the xenografted mice and then grafted onto the CAMs. […] In the control group, the CAMs were incubated with PBS buffer. […] The CAMs were examined daily for 12 days and photographed in ovo with a stereomicroscope equipped with a camera and image analyzer system (Olympus Italia, Italy). CD31-positive microvessels were measured and normalized with that of the control group. Less CD31-positive microvessels mean greater antiangiogenic effects. Microvessel density was represented by the percentage of the total number of intersection points occupied by CD31-positive vessels cut transversely (diameter of 3-10 μm). Mean values±SD were determined for each analysis.
# U251-HRE xenografts = conditions: zero to 125 hours of treatment (FIG. 13)
# From the text: (§1) The human glioma cell line, U251-HRE was kindly provided by Dr. Giovanni Melillo at National Cancer Institute (Frederick, Md., United States). The cells were transfected with luciferase reporter plasmids containing three copies of a canonical hypoxia response element (HRE) from the inducible nitric oxide synthase gene (Rapsirada, et al. 2000). U251-HRE tumors were established in the right axillary flank of female Harlan Sprague-Dawley nude mice (Harlan World, Indianapolis, Ind.) by subcutaneous injection of 1×10^7 U251-HRE cells/mouse. […] At each treatment time point, the tumor volume measurements were recorded and the tumor weights (mg) calculated using mg=[tumor length×(tumor width)]/2. […] To do so, the mice were injected intraperineally with 150 mg/kg of D-luciferin Firefly, potassium salt (Biosynth International, Inc., Itasca, Ill.). After 10 minutes, the mice were anesthetized via isofluorane gas and imaged using the Xenogen IVIS 100 Imaging Station (Xenogen Corp., Alameda, Calif.).
# HIF-1α [4] = experiment: HIF-1-dependent luciferase expression in U251-HRE human glioma xenografts; assay type: in vivo, mice; conditions: for luminescence (HIF-1-dependent luciferase): single dose or multiple doses, 48 hour and 120 hour time points, not normalized
# Protocol: The effect was measured by HIF-1-dependent luciferase expression in the U251-HRE xenografts.
# as §1
# [5] = 7-ethyl-10-hydroxycamptothecin formation from conjugates in rat plasma; assay type: in vitro ADME
# [6] = Hydrolysis in human plasma (conjugate half life, 7-ethyl-10-hydroxycamptothecin formation); assay type: in vitro ADME
# Protocol: In human plasma, 7-ethyl-10-hydroxycamptothecin was steadily released from the PEG conjugates with a doubling time of 22 to 52 minutes and the release appeared to be pH and concentration dependent as described in the following EXAMPLE 24.
# [7] = 7-ethyl-10-hydroxycamptothecin formation from conjugates in mouse plasma; assay type: in vitro ADME
# [8] = tested on: human neuroblastoma cells (GI-LI-N) xenograft tumors; conditions: compared to mice treated with CAMPTOSAR; 10 mg/kg i.v. q2d×5
# Protocol: (§2) Xenograft tumors were established in mice by injecting human neuroblastoma cells (GI-LI-N) in the adrenal gland at day 0 (T0). […] The control group mice received HEPES-buffered saline solution. Histological examination was performed on the tumors removed from the mice at day 44 (T44).
# The tissue sections removed from the treated mice in Example 27 were immunostained with TUNEL to evaluate apoptosis, and with primary antibody against histone H2ax (H2AFX) to evaluate DNA-damage dependent histone phosphorylation.
# HIF-1α [9] = tested on: HIF-1α
# Protocol: (§3) The cancer cells were grown in complete DMEM or RPMI-1640 medium, supplemented with 10% heat-inactivated FCS, as described in Pastorino F. et al., Cancer Res. 2006, 66:10073-82, 2006; Pastorino F. et al., Clin. Cancer Res. 2008, 14:7320-9; and Brignole C, et al., J. Nat'l. Cancer Inst. 2006, 98:1142-57). […] In some experiments (FIGS. 14(B) and (C)), the cancer cells were pre-incubated with 0.15 mM of Desferal (DFX or Deferoxamine purchased from Novartis Pharma in Stein, Swizerland) for 6 hours to induce HIF-1α. […] The cells were collected and western blotting analysis was performed using cell lysates as described in Pagnan G. et al., Clin. Cancer Res. 2009, 15:1199-209). Monoclonal anti-p53 (clone PAb 1801) and anti-HIF-1α (clone 54) were purchased from BD Biosciences (Buccinasco, Mich., Italy). Anti-HIF-2α (clone ep190b), and an anti-GAPDH (clone 14c10) antibodies were from Novus Biologicals, Inc (Cambridge, UK) and Cell Signaling Technology (Danvers, Mass., US), respectively.
# HIF-2α = conditions: GI-LI-N, HTLA-230, SH-SY5Y cells, 24 and 48 hours
# Protocol: as §3
# [10] = tested on: human neuroblastoma cells (GI-LI-N) xenograft tumors; experiment: Tumor angiogenesis and invasion in orthotopic GI-LI-N xenografted mice (VEGF, CD31, MMP-2, MMP-9 staining); assay type: in vivo
# Protocol: as §2
# The tissue sections were stained with antibodies against VEGF and CD31 to evaluate inhibition of angiogenesis. […] Cell nuclei were stained with DAPI. Morphometric analysis was performed on 9 randomly selected fields every 3 sections, observed at 200× magnification with an Olympus photomicroscope, using Image Analysis software (Olympus Italia). […] The sections were then washed twice in PBS and saturated with 2% BSA in PBS. In the morphometric analysis, the mean value in each image from the section, the final mean value for all the images and the SEM were calculated. The statistical significance of the differences between the mean values of the different experimental conditions was determined by Student's t test (GraphPad software). Findings were considered significant at P values <0.05 for all statistical evaluations.
# [11] = 7-ethyl-10-hydroxycamptothecin released from Compound 9, single injection 20 mg/kg of conjugate
# [12] = released 7-ethyl-10-hydroxycamptothecin
# [13] = multiple doses at MTD (q2d×3, day 0, 2, 4; compound 9 10 mg/kg, CPT-11 40 mg/kg), 120 hours
# [14] = 10 mg/kg i.v. q2d×5, tumors removed day 44
# [15] = significantly when compared to Camptosar (P<0.05), 10 mg/kg i.v. q2d×5
molecule,measurement,setting,value
CCc1c2c(nc3ccc(O)cc13)-c1cc3c(c(=O)n1C2)COC(=O)[C@]3(O)CC [7-ethyl-10-hydroxycamptothecin],Solubility in Saline,[1],^a7-ethyl-10-hydroxycamptothecin is not soluble in saline.
same,AUC,[2]; [11],98300 ng·h/mL
same,CL,[2]; [11],3.37 mL/min/kg
same,Cmax,[2]; [11],13200 ng/mL
same,Terminal t1/2,[2]; [11],14.2 h
same,Vss,[2]; [11],3.094 L/kg
same,terminal elimination half-life,"[2]; 7-ethyl-10-hydroxycamptothecin released from the conjugate, mice",18 to 26 h
same,Enterohepatic circulation,"[2]; released 7-ethyl-10-hydroxycamptothecin, mice",observed
same,apparent elimination half life,Pharmacokinetics in rats; 7-ethyl-10-hydroxycamptothecin released from 4armPEG-Gly conjugate,21 to 22 h
same,Enterohepatic circulation,Pharmacokinetics in rats; [12],observed
same,clearance,Pharmacokinetics in rats; [12],2.18 mL/min/kg
same,estimated Vss,Pharmacokinetics in rats; [12],2.384 L/kg
"CCc1c2c(nc3ccc(OC(=O)N4CCC(N5CCCCC5)CC4)cc13)-c1cc3c(c(=O)n1C2)COC(=O)[C@]3(O)CC [CPT-11, reference compound]",number of allantoic vessels radiating towards the tumor specimen,[3],decreased
same,tumor mass,U251-HRE xenografts,reduced
same,"downregulation of HIF-1α (luminescence normalized for tumor mass, change from baseline)","HIF-1α [4]; multiple doses (q2d×3, CPT-11 40 mg/kg), 48 hours",15%
same,"downregulation of HIF-1α (luminescence normalized for tumor mass, change from baseline)",HIF-1α [4]; [13],32%
same,luminescence (HIF-1-dependent luciferase),HIF-1α [4],minimal effect
same,downregulation of HIF-1α,"HIF-1α [4]; single injection (qd×1, CPT-11 80 mg/kg)",no downregulation
^40K4arm-PEG-Sar-(20)-(7-ethyl-10-hydroxycamptothecin) [Compound 23],"Doubling Time in Plasma, Rat (7-ethyl-10-hydroxycamptothecin formation rate from conjugates)",[5],481 min
same,"Doubling Time in Plasma, Human (7-ethyl-10-hydroxycamptothecin formation rate from conjugates)",[6],28.8 min
same,t1/2 in Human Plasma (PEG conjugate half life),[6],0.317 h
same,"Doubling Time in Plasma, Mouse (7-ethyl-10-hydroxycamptothecin formation rate from conjugates)",[7],43.4 min
^40k4arm-PEG-Ala-(20)-(7-ethyl-10-hydroxycamptothecin) [Compound 12],"Doubling Time in Plasma, Rat (7-ethyl-10-hydroxycamptothecin formation rate from conjugates)",[5],753 min
same,Solubility in Saline,[1],121 mg/mL
same,"Doubling Time in Plasma, Human (7-ethyl-10-hydroxycamptothecin formation rate from conjugates)",[6],51.9 min
same,t1/2 in Human Plasma (PEG conjugate half life),[6],0.208 h
same,"Doubling Time in Plasma, Mouse (7-ethyl-10-hydroxycamptothecin formation rate from conjugates)",[7],45.8 min
^40k4arm-PEG-Gly(20)-(7-ethyl-10-hydroxycamptothecin) [Compound 9],Histone H2ax staining in tumor tissues,[8],enhanced
same,TUNEL staining in tumor tissues (apoptosis),[8],enhanced
same,number of allantoic vessels radiating towards the tumor specimen,[3],decreased
same,number of radiating vessels which invade the tumor specimen,"[3]; compound 9 compared to CPT-11, P<0.01",much less
same,constitutive HIF-1α protein levels,"HIF-1α [9]; human neuroblastoma cells, 24 hours (FIG. 14B)",decreased
same,DFX-induced HIF-1α protein levels,"HIF-1α [9]; pre-incubated with 0.15 mM Desferal 6 hours, then treated 24 hours (FIG. 14C)",decreased
same,expression of HIF-2α protein,HIF-2α,inhibited
same,tumor mass,U251-HRE xenografts,reduced
same,"downregulation of HIF-1α (luminescence normalized for tumor mass, change from baseline)",HIF-1α [4]; [13],93%
same,"downregulation of HIF-1α (luminescence normalized for tumor mass, change from baseline)","HIF-1α [4]; single dose (qd×1, compound 9 30 mg/kg), 48 hours",37%
same,"downregulation of HIF-1α (luminescence normalized for tumor mass, change from baseline)","HIF-1α [4]; single dose (qd×1, compound 9 30 mg/kg), 120 hours",83%
same,luminescence (HIF-1-dependent luciferase),HIF-1α [4],diminished luminescence
same,CD31 expression in primary NB tumors,[10]; [14],inhibited
same,VEGF expression in primary NB tumors,[10]; [14],inhibited
same,number of CD31-positive endothelial cells,"[10]; compared to mice treated with CAMPTOSAR, P<0.05, 10 mg/kg i.v. q2d×5",decreased
same,MMP-2 expression,[10]; [15],inhibited
same,MMP-9 expression,[10]; [15],inhibited
^40k4arm-PEG-Met-(20)-(7-ethyl-10-hydroxycamptothecin) [Compound 18],"Doubling Time in Plasma, Rat (7-ethyl-10-hydroxycamptothecin formation rate from conjugates)",[5],1920 min
same,Solubility in Saline,[1],142 mg/mL
same,"Doubling Time in Plasma, Human (7-ethyl-10-hydroxycamptothecin formation rate from conjugates)",[6],22.2 min
same,t1/2 in Human Plasma (PEG conjugate half life),[6],0.447 h
same,"Doubling Time in Plasma, Mouse (7-ethyl-10-hydroxycamptothecin formation rate from conjugates)",[7],41.9 min
